Reference: patent US20220054432A1, “COMPOSITION FOR INCREASING RETENTION OF CAROTENOID IN BLOOD” (ENEOS Corporation, priority 2018, published 2022)

Assays:
[1] = Retention in blood: carotenoid concentration in serum of mice (Test Example 1); assay type: in vivo, ICR strain mice; details: 50 mg/kg body weight orally once daily for 10 days, blood 4 hours after last administration
Source text: Adonixanthin was used as an asymmetric carotenoid, and astaxanthin was used as a symmetric carotenoid. As experimental animals, ICR strain mice were used. Fourteen (14) mice were used, and 4 mice each were assigned to the adonixanthin-administration group and the astaxanthin-administration group, and 6 mice were assigned to the control administration group. In grouping, each group was constituted so that the mean body weight in each group was as uniform as possible based on the body weight on the day before initiation of administration. For each experimental group, blood was collected before initiation of administration of dosing substances. […] Each of the concentration of adonixanthin in serum of blood collected from the adonixanthin-administration group (concentration relative to 1 mL of serum) and the concentration of astaxanthin in serum of blood collected from the astaxanthin-administration group (concentration relative to 1 mL of serum) was measured. […] In HPLC, the concentration of adonixanthin was measured as a concentration of each of the cis isomer and the trans isomer. In HPLC, the concentration of astaxanthin was measured as a concentration of each of the cis isomer and the trans isomer. […] From serum collected from the control administration group, neither adonixanthin nor astaxanthin were detected.

8-OHdG = assay: Measurement of 8-OHdG in blood in mice (Test Example 4); assay type: in vivo, ICR strain mice; details: 300 mg/kg body weight orally once daily for 14 days, ELISA, vs control administration group (olive oil)
Source text: Adonixanthin was used as an asymmetric carotenoid, and astaxanthin was used as a symmetric carotenoid. As experimental animals, ICR strain mice were used. Thirty (30) mice were used, and 10 mice each were assigned to the adonixanthin-administration group, the astaxanthin-administration group, and the control administration group. […]
After end of administration for 14 days, blood was collected from the postcava of the mice under isoflurane absorption anesthesia. […] Thereafter, 8-OHdG of the collected serum was measured using 8-hydroxy 2 deoxyguanosine ELISA Kit (ab201734) (manufactured by Abcam plc.) as an ELISA kit for measurement of 8-OHdG.
Each of the concentration of 8-OHdG in serum collected from the adonixanthin-administration group, and the concentration of 8-OHdG in serum collected from the astaxanthin-administration group, and the concentration of 8-OHdG in serum collected from the control administration group is shown in FIG. 4. The concentration was expressed as mean±standard error. […]

CC1=C(/C=C/C(C)=C/C=C/C(C)=C/C=C/C=C(C)/C=C/C=C(C)/C=C/C2=C(C)C(=O)C(O)CC2(C)C)C(C)(C)CC(O)C1 (stereo not drawn) [adonixanthin, 3,3′-dihydroxy-β,β-caroten-4-one]
Concentration in serum (total of cis isomer and trans isomer), FIG. 1 [1]: especially likely to be retained in blood
Concentration of 8-OHdG in serum, FIG. 4 (8-OHdG): significantly lower than that in the control administration group

CC1=C(/C=C/C(C)=C/C=C/C(C)=C/C=C/C=C(C)/C=C/C=C(C)/C=C/C2=C(C)C(=O)C(O)CC2(C)C)C(C)(C)CC(O)C1=O (stereo not drawn) [astaxanthin, 3,3′-dihydroxy-β,β-carotene-4,4′-dione]
Concentration in serum (total of cis isomer and trans isomer), FIG. 1 [1]: exist in serum at a high concentration
Concentration of 8-OHdG in serum, FIG. 4 (8-OHdG): low
